Experimental data: patent US9212182B2, “Bicyclic sulfonamide compounds as sodium channel inhibitors” (AMGEN INC., priority 2013, dated 2015)
Where two headings read alike, the source gives them in different places.

Target: Nav 1.7 (Homo sapiens (Human), UniProt Q15858)
Assay: in-vitro Nav 1.7 PX (IC50)
Type: cell-based

Sequence of Nav 1.7 (Q15858 whole entry): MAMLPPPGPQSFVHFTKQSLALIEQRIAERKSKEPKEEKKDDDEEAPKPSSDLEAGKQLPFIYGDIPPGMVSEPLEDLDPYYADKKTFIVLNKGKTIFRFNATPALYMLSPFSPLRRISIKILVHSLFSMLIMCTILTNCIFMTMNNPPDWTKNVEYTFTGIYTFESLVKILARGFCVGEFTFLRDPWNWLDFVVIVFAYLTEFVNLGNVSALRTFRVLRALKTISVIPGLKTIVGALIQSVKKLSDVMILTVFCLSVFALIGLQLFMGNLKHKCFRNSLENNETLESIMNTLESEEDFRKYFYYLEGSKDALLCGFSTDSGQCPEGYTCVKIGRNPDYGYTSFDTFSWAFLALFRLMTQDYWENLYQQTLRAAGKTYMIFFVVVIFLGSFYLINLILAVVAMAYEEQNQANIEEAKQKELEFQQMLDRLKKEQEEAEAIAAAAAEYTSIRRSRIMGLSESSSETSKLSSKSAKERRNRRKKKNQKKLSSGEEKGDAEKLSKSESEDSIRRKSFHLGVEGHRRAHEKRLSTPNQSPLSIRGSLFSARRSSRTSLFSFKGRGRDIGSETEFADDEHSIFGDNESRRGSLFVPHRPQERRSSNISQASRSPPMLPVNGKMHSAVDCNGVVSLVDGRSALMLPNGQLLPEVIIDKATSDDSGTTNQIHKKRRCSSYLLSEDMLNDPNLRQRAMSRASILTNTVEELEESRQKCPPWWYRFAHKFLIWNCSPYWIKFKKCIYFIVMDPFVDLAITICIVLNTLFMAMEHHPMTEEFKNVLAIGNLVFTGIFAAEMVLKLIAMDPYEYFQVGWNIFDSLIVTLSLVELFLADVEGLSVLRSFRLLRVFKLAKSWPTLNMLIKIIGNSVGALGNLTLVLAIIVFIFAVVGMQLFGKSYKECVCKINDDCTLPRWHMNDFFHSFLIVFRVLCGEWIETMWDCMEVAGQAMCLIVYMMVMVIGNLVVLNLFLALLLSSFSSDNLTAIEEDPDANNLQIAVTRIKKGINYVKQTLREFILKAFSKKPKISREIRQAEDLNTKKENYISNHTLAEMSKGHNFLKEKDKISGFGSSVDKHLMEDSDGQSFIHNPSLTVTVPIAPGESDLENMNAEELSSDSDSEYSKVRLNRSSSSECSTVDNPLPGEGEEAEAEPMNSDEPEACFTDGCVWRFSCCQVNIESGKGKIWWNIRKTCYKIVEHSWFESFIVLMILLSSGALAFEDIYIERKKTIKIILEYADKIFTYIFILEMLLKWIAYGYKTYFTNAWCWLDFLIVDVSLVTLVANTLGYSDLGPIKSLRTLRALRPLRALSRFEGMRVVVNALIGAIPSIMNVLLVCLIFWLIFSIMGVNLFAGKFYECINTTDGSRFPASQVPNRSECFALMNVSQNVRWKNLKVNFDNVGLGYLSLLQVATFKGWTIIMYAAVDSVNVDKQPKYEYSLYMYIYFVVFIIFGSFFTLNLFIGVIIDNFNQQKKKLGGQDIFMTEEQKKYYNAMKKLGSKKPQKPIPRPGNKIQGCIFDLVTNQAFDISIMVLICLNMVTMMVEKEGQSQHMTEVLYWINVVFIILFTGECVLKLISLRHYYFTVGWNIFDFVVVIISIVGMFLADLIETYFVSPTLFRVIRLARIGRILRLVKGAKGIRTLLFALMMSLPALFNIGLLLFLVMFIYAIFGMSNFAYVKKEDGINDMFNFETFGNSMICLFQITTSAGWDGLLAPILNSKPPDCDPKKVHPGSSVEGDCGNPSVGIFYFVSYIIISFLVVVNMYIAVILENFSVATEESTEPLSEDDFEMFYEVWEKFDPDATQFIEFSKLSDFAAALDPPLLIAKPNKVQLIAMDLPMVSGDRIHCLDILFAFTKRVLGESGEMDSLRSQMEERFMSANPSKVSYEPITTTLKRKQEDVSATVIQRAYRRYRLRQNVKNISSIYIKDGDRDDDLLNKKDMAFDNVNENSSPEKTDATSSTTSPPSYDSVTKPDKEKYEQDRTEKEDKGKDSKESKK

Compound | IC50 (in-vitro Nav 1.7 PX data) | other results
COc1cc(-c2cccc(OC)c2C)c(C)cc1-n1c(=O)ccc2cc(S(=O)(=O)Nc3ncccn3)ccc21 [Example 968, 1-(3′,5-dimethoxy-2,2′-dimethyl-4-biphenylyl)-2-oxo-N-2-pyrimidinyl-1,2-dihydro-6-quinolinesulfonamide] | 0.057 µM | 
COc1cc(-c2ccc(F)c(C)c2)c(F)cc1-n1c(=O)ccc2cc(S(=O)(=O)Nc3ncco3)ccc21 [Example 943, 1-(2,4′-difluoro-5-methoxy-3′-methyl-4-biphenylyl)-N-1,3-oxazol-2-yl-2-oxo-1,2-dihydro-6-quinolinesulfonamide] | 0.013 µM | 
COc1cc(-c2ccc(Cl)c(C#N)c2)c(F)cc1-n1c(=O)ccc2cc(S(=O)(=O)Nc3cc(C)ncn3)ccc21 [Example 898, 1-(4′-chloro-3′-cyano-2-fluoro-5-methoxy-4-biphenylyl)-N-(6-methyl-4-pyrimidinyl)-2-oxo-1,2-dihydro-6-quinolinesulfonamide] | 0.044 µM | 
COc1ccc(-c2cc(OC)c(-n3c(=O)ccc4cc(S(=O)(=O)Nc5ccon5)ccc43)cc2F)cn1 [Example 729, 1-(5-fluoro-2-methoxy-4-(6-methoxy-3-pyridinyl)phenyl)-N-3-isoxazolyl-2-oxo-1,2-dihydro-6-quinolinesulfonamide] | 0.598 µM | 
COc1cc(Cl)cc(-c2ccc(-n3c(=O)ccc4cc(S(=O)(=O)Nc5ncco5)ccc43)c(OC)c2)c1 [Example 925, 1-(3′-chloro-3,5′-dimethoxy-4-biphenylyl)-N-1,3-oxazol-2-yl-2-oxo-1,2-dihydro-6-quinolinesulfonamide] | 0.022 µM | 
COc1cc(-c2cccc(Cl)c2)ccc1-n1c(=O)ccc2cc(S(=O)(=O)Nc3ccon3)ccc21 [Example 351, M-1-(3′-chloro-3-methoxy-[1,1′-biphenyl]-4-yl)-N-(isoxazol-3-yl)-2-oxo-1,2-dihydroquinoline-6-sulfonamide] |  | IC50: 5.52 µM
COc1cc(-c2cccc(F)c2)c(F)cc1-n1c(=O)cc(C)c2cc(S(=O)(=O)Nc3ccon3)ccc21 (atropisomer, axis not shown; (P)) [Example 572, (P)-1-(2,3′-difluoro-5-methoxy-4-biphenylyl)-N-3-isoxazolyl-4-methyl-2-oxo-1,2-dihydro-6-quinolinesulfonamide] |  | IC50: 0.485 µM
COc1cc(CC(C)(C)C)c(F)cc1-n1c(=O)ccc2cc(S(=O)(=O)Nc3ccon3)ccc21 [Example 1076, 1-(4-(2,2-dimethylpropyl)-5-fluoro-2-methoxyphenyl)-N-3-isoxazolyl-2-oxo-1,2-dihydro-6-quinolinesulfonamide] | 0.064 µM | 
COc1cc(-c2ccccc2C)c(F)cc1-n1c(=O)ccc2cc(S(=O)(=O)Nc3ccon3)ccc21 [Example 953, 1-(2-fluoro-5-methoxy-2′-methyl-4-biphenylyl)-N-3-isoxazolyl-2-oxo-1,2-dihydro-6-quinolinesulfonamide] | 0.026 µM | 
COc1nc(-c2ccc(Cl)c(C)c2)c(Cl)cc1-n1c(=O)ccc2cc(S(=O)(=O)Nc3ccon3)ccc21 [Example 448, 1-(5-chloro-6-(4-chloro-3-methylphenyl)-2-methoxypyridin-3-yl)-N-(isoxazol-3-yl)-2-oxo-1,2-dihydroquinoline-6-sulfonamide] |  | IC50 (in-vitro PatchXpress (PX)): 0.115 µM
COc1cc(-c2cccc(C)c2)c(F)cc1-n1c(=O)ccc2cc(S(=O)(=O)Nc3ncco3)ccc21 [Example 1106, 1-(2-fluoro-5-methoxy-3′-methyl-4-biphenylyl)-N-1,3-oxazol-2-yl-2-oxo-1,2-dihydro-6-quinolinesulfonamide] | 0.024 µM | 
COc1cc(-c2cnc(OC)c(Cl)c2)c(F)cc1-n1c(=O)ccc2cc(S(=O)(=O)Nc3cccc(F)n3)ccc21 (atropisomer, axis not shown; (P)) [Example 1162, (P)-1-(4-(5-chloro-6-methoxy-3-pyridinyl)-5-fluoro-2-methoxyphenyl)-N-(6-fluoro-2-pyridinyl)-2-oxo-1,2-dihydro-6-quinolinesulfonamide] |  | IC50 (in-vitro Nav 1.7 PX data, Table 4): 0.012 µM
COc1cc(-c2cc(F)cc(C(F)(F)F)c2)ccc1-n1c(=O)ccc2cc(S(=O)(=O)Nc3ncccn3)ccc21 [Example 1097] | 0.05 µM | 
COc1cc(F)cc(-c2ccc(-n3c(=O)ccc4cc(S(=O)(=O)Nc5cccnn5)ccc43)c(OC)c2)c1 [Example 997, 1-(3′-fluoro-3,5′-dimethoxy-4-biphenylyl)-2-oxo-N-3-pyridazinyl-1,2-dihydro-6-quinolinesulfonamide] | 0.066 µM | 
COc1cc(-c2ccc(C#N)c(Cl)c2)c(F)cc1-n1c(=O)ccc2cc(S(=O)(=O)Nc3ccon3)ccc21 (atropisomer, axis not shown; (M)) [Example 521, (M)-1-(3′-chloro-4′-cyano-2-fluoro-5-methoxy-4-biphenylyl)-N-3-isoxazolyl-2-oxo-1,2-dihydro-6-quinolinesulfonamide] |  | IC50 (in-vitro PatchXpress (PX)): > 10 µM
COc1cc(-c2ccc(Cl)cc2)c(F)cc1-n1c(=O)ccc2cc(S(=O)(=O)Nc3ncccn3)ccc21 (atropisomer, axis not shown) [Example 598, 1-(4′-chloro-2-fluoro-5-methoxy-4-biphenylyl)-2-oxo-N-2-pyrimidinyl-1,2-dihydro-6-quinolinesulfonamide] | 0.028 µM | 

Compound | IC50 (in-vitro Nav 1.7 PX data) | other results
COc1cc(-c2ccc(Cl)c(C#N)c2)c(F)cc1-n1c(=O)ccc2cc(S(=O)(=O)Nc3ccnc(C)n3)ccc21 [Example 892, 1-(4′-chloro-3′-cyano-2-fluoro-5-methoxy-4-biphenylyl)-N-(2-methyl-4-pyrimidinyl)-2-oxo-1,2-dihydro-6-quinolinesulfonamide] | 0.051 µM | 
COc1cc(-c2cc(OC)c(-n3c(=O)ccc4cc(S(=O)(=O)Nc5ccon5)ccc43)cc2F)ccc1Cl [Example 700, 1-(4′-chloro-2-fluoro-3′,5-dimethoxy-4-biphenylyl)-N-3-isoxazolyl-2-oxo-1,2-dihydro-6-quinolinesulfonamide] | 0.005 µM | 
COc1cc(-c2ccc(F)c(F)c2)ccc1-n1c(=O)ccc2cc(S(=O)(=O)Nc3cccnn3)ccc21 [Example 896, 1-(3′,4′-difluoro-3-methoxy-4-biphenylyl)-2-oxo-N-3-pyridazinyl-1,2-dihydro-6-quinolinesulfonamide] | 0.047 µM | 
COc1nc(NC2CCCC2)c(Cl)cc1-n1c(=O)ccc2cc(S(=O)(=O)Nc3ccon3)ccc21 [Example 648, 1-(5-chloro-6-(cyclopentylamino)-2-methoxy-3-pyridinyl)-N-3-isoxazolyl-2-oxo-1,2-dihydro-6-quinolinesulfonamide] | 0.984 µM | 
COc1cc(-c2cnn(C)c2)c(F)cc1-n1c(=O)ccc2cc(S(=O)(=O)Nc3ccon3)ccc21 [Example 405, 1-(5-fluoro-2-methoxy-4-(1-methyl-1H-pyrazol-4-yl)phenyl)-N-3-isoxazolyl-2-oxo-1,2-dihydro-6-quinolinesulfonamide] |  | IC50 (in-vitro PatchXpress (PX)): 14.6 µM
COc1cc(-c2cccc(F)c2)c(C)cc1-n1c(=O)ccc2cc(S(=O)(=O)Nc3ccon3)ccc21 (atropisomer, axis not shown; (P)) [Example 427, (P)-1-(3′-fluoro-5-methoxy-2-methyl-4-biphenylyl)-N-3-isoxazolyl-2-oxo-1,2-dihydro-6-quinolinesulfonamide] |  | IC50: 0.025 µM
COc1nc(C2CC2)c(Cl)cc1-n1c(=O)ccc2cc(S(=O)(=O)Nc3ccon3)ccc21 [640/830, 1-(5-chloro-6-cyclopropyl-2-methoxy-3-pyridinyl)-N-3-isoxazolyl-2-oxo-1,2-dihydro-6-quinolinesulfonamide] | 0.038 µM | 
COc1cc(-c2cc(F)cc(C(F)(F)F)c2)ccc1-n1c(=O)ccc2cc(S(=O)(=O)Nc3cc(C)ncn3)ccc21 [Example 1101, 1-(3′-fluoro-3-methoxy-5′-(trifluoromethyl)-4-biphenylyl)-N-(6-methyl-4-pyrimidinyl)-2-oxo-1,2-dihydro-6-quinolinesulfonamide] | 0.041 µM | 
COc1nc(Oc2cccc(Cl)c2C)c(Cl)cc1-n1c(=O)ccc2cc(S(=O)(=O)Nc3ccon3)ccc21 [Example 1226, 1-(5-chloro-6-(3-chloro-2-methylphenoxy)-2-methoxy-3-pyridinyl)-N-3-isoxazolyl-2-oxo-1,2-dihydro-6-quinolinesulfonamide] |  | IC50: 0.316 µM
COc1cc(-c2ccc(Cl)c(C)c2)c(F)cc1-n1c(=O)c(OC)cc2cc(S(=O)(=O)Nc3ccon3)ccc21 (atropisomer, axis not shown; (P)) [Example 414, (P)-1-(4′-chloro-2-fluoro-5-methoxy-3′-methyl-[1,1′-biphenyl]-4-yl)-N-(isoxazol-3-yl)-3-methoxy-2-oxo-1,2-dihydroquinoline-6-sulfonamide] |  | IC50: 0.013 µM
COc1cc(-c2cc(F)cc(Cl)c2)c(F)cc1-n1c(=O)ccc2cc(S(=O)(=O)Nc3cccnn3)ccc21 (atropisomer, axis not shown; (P)) [Example 542, (P)-1-(3′-chloro-2,5′-difluoro-5-methoxy-4-biphenylyl)-2-oxo-N-3-pyridazinyl-1,2-dihydro-6-quinolinesulfonamide] |  | IC50: 0.007 µM
COc1ccc(-c2cnn(C)c2)cc1-n1c(=O)ccc2cc(S(=O)(=O)Nc3ccon3)ccc21 [Example 486, N-3-isoxazolyl-1-(2-methoxy-5-(1-methyl-1H-pyrazol-4-yl)phenyl)-2-oxo-1,2-dihydro-6-quinolinesulfonamide] |  | IC50: 27.1 µM
COc1cc(-c2ccc(Cl)cc2)c(F)cc1-n1c(=O)ccc2cc(S(=O)(=O)Nc3ccon3)ccc21 (atropisomer, axis not shown; (P)) [Example 633, (P)-1-(4′-chloro-2-fluoro-5-methoxy-4-biphenylyl)-N-3-isoxazolyl-2-oxo-1,2-dihydro-6-quinolinesulfonamide] | 0.007 µM | 
COc1nc(-c2cccc(C)c2)c(Cl)cc1-n1c(=O)ccc2cc(S(=O)(=O)Nc3ccon3)ccc21 [Example 1089, 1-(5-chloro-2-methoxy-6-(3-methylphenyl)-3-pyridinyl)-N-3-isoxazolyl-2-oxo-1,2-dihydro-6-quinolinesulfonamide] | 3.24 µM | 
COc1nc(-c2cc(F)cc(F)c2)c(Cl)cc1-n1c(=O)ccc2cc(S(=O)(=O)Nc3ncccn3)ccc21 [Example 1080, 1-(5-chloro-6-(3,5-difluorophenyl)-2-methoxy-3-pyridinyl)-2-oxo-N-2-pyrimidinyl-1,2-dihydro-6-quinolinesulfonamide] | 0.021 µM | 
